These results are taken from ChEMBL document CHEMBL1136350, “Design and synthesis of orally active inhibitors of TNF synthesis as anti-rheumatoid arthritis drugs” (Bioorg Med Chem Lett, 2003).

One series concerns MONO-MAC-6. In words: Inhibitory activity against monomac6 (MM6) human monocytic cell line. The class given is functional, cell-based.
The nature of series [1]: Area under curve was determined in rat after oral administration at a concentration 30 mg/kg. The class given is ADME, organism-based. Also on record: dose 30 mg/kg, route oral. The note with it: in vivo.
Series [2] concerns Mus musculus. In words: Number of positive paws that was inflamed by murine collagen -induced arthritis(MCIA) in mice after peroral administration 13 day at a concentration 5 mg/kg. The class given is functional. The note with it: route oral.
Series [3] relates to Mus musculus. Description: Number of paws at risk inflamed by murine collagen -induced arthritis(MCIA) in mice after peroral administration at a concentration 5 mg/kg. The format is functional. The note with it: route oral.
For series [4], the system named is Mus musculus. Description: Inhibition of murine collagen -induced arthritis(MCIA) in mice after peroral administration at a concentration 45 mg/kg. The format is functional. The conditions noted are these: route oral.
Series [5] relates to Mus musculus. In words: Inhibition of murine collagen -induced arthritis(MCIA) in mice after peroral administration at a concentration 2 mg/kg. The format is functional. The conditions noted are these: route oral.
Series [6] concerns Mus musculus. Description: Reduction of murine collagen -induced arthritis(MCIA) in mice after peroral administration at a concentration 45 mg/kg. The format is functional. The conditions noted are these: route oral.
Series [7] is described as follows: Cmax in dog plasma after 30mg/kg oral dose. The class given is ADME, organism-based, Canis lupus familiaris. Also on record: dose 30 mg/kg, route oral.
For series [8], the system named is Mus musculus. In words: Number of positive paws that was inflamed by murine collagen -induced arthritis(MCIA) in mice after peroral administration 13 day at a concentration 15 mg/kg. The class given is functional. The note with it: route oral.
Series [9] deals with Mus musculus. In words: Inhibition of murine collagen -induced arthritis(MCIA) in mice after peroral administration at a concentration 120 mg/kg. The note with it: route oral. The class given is functional.
The subject of series [10] is Mus musculus. Description: Reduction of murine collagen -induced arthritis(MCIA) in mice after peroral administration at a concentration 15 mg/kg. The class given is functional. The conditions noted are these: route oral.
Series [11] has as its system Mus musculus. In words: Inhibition of murine collagen -induced arthritis(MCIA) in mice after peroral administration at a concentration 15 mg/kg. The note with it: route oral. The class given is functional.
Series [12] has as its system Mus musculus. Description: Number of positive paws that was inflamed by murine collagen -induced arthritis(MCIA) in mice after peroral administration 13 day at a concentration 45 mg/kg. The note with it: route oral. The format is functional.
In series [13] the test system is Mus musculus. In words: Reduction of murine collagen -induced arthritis(MCIA) in mice after peroral administration at a concentration 2 mg/kg. The format is functional. The conditions noted are these: route oral.
The subject of series [14] is Mus musculus. In words: Number of paws at risk inflamed by murine collagen -induced arthritis(MCIA) in mice after peroral administration at a concentration 2 mg/kg. The class given is functional. The conditions noted are these: route oral.
For series [15], the system named is Mus musculus. Description: Reduction of murine collagen -induced arthritis(MCIA) in mice after peroral administration at a concentration 5 mg/kg. The format is functional. The conditions noted are these: route oral.
The nature of series [16]: Cmax in rat plasma after 30mg/kg oral dose. The class given is ADME, organism-based. Also on record: dose 30 mg/kg, route oral.
The nature of series [17]: Plasma concentration in rats after 7 hr at 30mg/kg oral dose. The note with it: rat, read-out: Conc_plasma. The class given is ADME, organism-based.
The subject of series [18] is Mus musculus. Description: Number of paws at risk inflamed by murine collagen -induced arthritis(MCIA) in mice after peroral administration at a concentration 120 mg/kg. The class given is functional. The conditions noted are these: route oral.
In series [19] the test system is Mus musculus. Description: Inhibition of murine collagen -induced arthritis(MCIA) in mice after peroral administration at a concentration 5 mg/kg. The class given is functional. The conditions noted are these: route oral.
For series [20], the system named is Mus musculus. In words: Reduction of murine collagen -induced arthritis(MCIA) in mice after peroral administration at a concentration 120 mg/kg. The format is functional. The note with it: route oral.
Series [21] deals with Mus musculus. In words: Number of paws at risk inflamed by murine collagen -induced arthritis(MCIA) in mice after peroral administration at a concentration 45 mg/kg. The format is functional. The conditions noted are these: route oral.
In series [22] the test system is Mus musculus. In words: Number of positive paws that was inflamed by murine collagen -induced arthritis(MCIA) in mice after peroral administration 13 day at a concentration 120 mg/kg. The class given is functional. The note with it: route oral.
Series [23] concerns Mus musculus. Description: Number of paws at risk inflamed by murine collagen -induced arthritis(MCIA) in mice after peroral administration at a concentration 15 mg/kg. The format is functional. The note with it: route oral.
The nature of series [24]: Plasma concentration in dogs after 2 hr at 30mg/kg oral dose. The class given is ADME, organism-based, Canis lupus familiaris. The conditions noted are these: dog, read-out: Conc_plasma.
The test system of series [25] is Mus musculus. Description: Number of positive paws that was inflamed by murine collagen -induced arthritis(MCIA) in mice after peroral administration 13 day at a concentration 2 mg/kg. The format is functional. The note with it: route oral.
For the next series, the system named is Rattus norvegicus. In words: Area under curve was determined in rat after oral administration at a concentration 30 mg/kg; NA= Not active. The class given is ADME, organism-based. The note with it: in vivo. More on the design: dose 30 mg/kg, route oral.

As usually defined, the IC50 is the midpoint of a concentration-inhibition curve. In the case of `C[C@@H](NS(=O)(=O)N1CCC(c2ccc(Cl)cc2)CC1)C(=O)NO`, in the series with MONO-MAC-6 (Homo sapiens, MONO-MAC-6), the concentration for half-maximal inhibition (IC50) was determined as 5800 nM. That is a single-digit micromolar value.
On the same count and under the same terms, then `O=C(NO)[C@H]1CCCCN1S(=O)(=O)N1CC=C(c2ccc(Oc3ccccc3)cc2)CC1`, with 3300 nM.
Same read-out and setting: the value for `O=C(NO)[C@H]1CCCCN1S(=O)(=O)N1CC=C(c2ccc(Cl)cc2)CC1` (stereo in doubt; 3) was 430 nM.
By AUC is commonly meant concentration integrated over time. As to `CNC(=O)N1CCN(S(=O)(=O)N2CC=C(c3ccc(F)cc3)CC2)[C@@H](C(=O)NO)C1`, in series [1], the AUC is 1790 ng·h/mL. Moreover, 120 nM corresponded to half-maximal inhibition with MONO-MAC-6 (Homo sapiens, MONO-MAC-6) (IC50).
The term inhibition in vivo denotes the share of the control response that was lost under treatment. Read a low inhibition in vivo as a response near the control. Usually Cmax stands for the peak of the concentration-time curve. Take `CN(C)C(=O)N1CCN(S(=O)(=O)N2CC=C(c3ccc(F)cc3)CC2)[C@@H](C(=O)NO)C1`: the Positive paws in the series with Mus musculus [2] is 30%; with Mus musculus [8], 41%; with Mus musculus [12], 33%; in the series with Mus musculus [22], 4%; with Mus musculus [25], 27%. The Severity with Mus musculus [3] stood at 2.4; with Mus musculus [14], 2.7; in the series with Mus musculus [18] it was 1; in the series with Mus musculus [21], 2.9; in the series with Mus musculus [23] it was 2.8. Also, the Max score in the series on Mus musculus [4] was found to be 3.8; in the series with Mus musculus [5], 2.9; in the series on Mus musculus [9], 0.3; in the series with Mus musculus [11], 4.5; in the series on Mus musculus [19] it was 2.7. Also, in the series on Mus musculus [6], 45 mg/kg produced 56% inhibition in vivo. The values for the peak concentration (Cmax) in series [7] and in [16] were 182 ng/mL and 1050 ng/mL, respectively. The inhibition in vivo at 15 mg/kg with Mus musculus [10] came to 49%. The molecule further had an inhibition in vivo at 2 mg/kg with Mus musculus [13] of 67%. In series [1], this molecule showed an AUC of 6180 ng·h/mL. Also, in the series with Mus musculus [15], testing at 5 mg/kg gave an inhibition in vivo of 69%. Also, in series [17], the concentration at 7 h is 233 ng/mL. Moreover, the inhibition in vivo at 120 mg/kg with Mus musculus [20] is 96%. The concentration at 2 h in series [24] turned out to be 110 ng/mL. In the series on MONO-MAC-6 (Homo sapiens, MONO-MAC-6), the IC50 stood at 200 nM.
`O=C(NO)[C@H]1CCCCN1S(=O)(=O)N1CC=C(c2ccc(Cl)cc2)CC1` (stereo in doubt; 6) showed a concentration for half-maximal inhibition (IC50) in the series on MONO-MAC-6 (mono-mac-6) of 480 nM.
Turning to `O=C(NO)[C@H]1CNCCN1S(=O)(=O)N1CC=C(c2ccc(F)cc2)CC1`, the AUC entry with Rattus norvegicus is given as “Not Active”. In the series with MONO-MAC-6 (Homo sapiens, MONO-MAC-6), it took 3560 nM to reach half-maximal inhibition (IC50).
In the series with MONO-MAC-6 (Homo sapiens, MONO-MAC-6), `CCCc1ccc(C2=CCN(S(=O)(=O)N3CCCC[C@@H]3C(=O)NO)CC2)cc1` had an IC50 of 2600 nM. In other words, the single-digit micromolar range.
As to `COc1cccc(C2=CCN(S(=O)(=O)N3CCCC[C@@H]3C(=O)NO)CC2)c1`, in the series on MONO-MAC-6 (Homo sapiens, MONO-MAC-6), half-maximal inhibition (IC50) required 260 nM.
In series [1], `CN(C)P(=O)(N(C)C)N1CCN(S(=O)(=O)N2CC=C(c3ccc(F)cc3)CC2)[C@@H](C(=O)NO)C1` had an area under the curve (AUC) of 1540 ng·h/mL. In the series with MONO-MAC-6 (Homo sapiens, MONO-MAC-6), this molecule gave a half-inhibitory concentration (IC50) of 510 nM.
The like results for `CN(C)S(=O)(=O)N1CCN(S(=O)(=O)N2CC=C(c3ccc(F)cc3)CC2)[C@@H](C(=O)NO)C1` were, in that order, 3270 ng·h/mL and 250 nM.
As for `CCc1cccc(C2=CCN(S(=O)(=O)N3CCCC[C@@H]3C(=O)NO)CC2)c1`, the IC50 in the series on MONO-MAC-6 (Homo sapiens, MONO-MAC-6) was determined as 320 nM.
Regarding `O=C(NO)[C@H]1CN(CC(F)(F)F)CCN1S(=O)(=O)N1CC=C(c2ccc(F)cc2)CC1`, the area under the curve (AUC) in series [1] amounted to 3260 ng·h/mL. Half-maximal inhibition in the series with MONO-MAC-6 (Homo sapiens, MONO-MAC-6) (IC50) required 300 nM.
On to `COc1ccc(C2=CCN(S(=O)(=O)N3CCCC[C@@H]3C(=O)NO)CC2)cc1`, for which, in the series with MONO-MAC-6 (Homo sapiens, MONO-MAC-6), 15000 nM corresponded to half-maximal inhibition (IC50).
The same measure, in the same setting: then `O=C(NO)[C@H]1CCCCN1S(=O)(=O)N1CC=C(c2cccc(-c3ccccc3)c2)CC1`, with 7600 nM.
`O=C(NO)[C@H]1CN(C(=O)N2CCOCC2)CCN1S(=O)(=O)N1CC=C(c2ccc(F)cc2)CC1` gave an exposure (AUC) in [1] of 7940 ng·h/mL. This molecule also gave a 50% inhibitory concentration (IC50) in the series on MONO-MAC-6 (Homo sapiens, MONO-MAC-6) of 350 nM.
For the molecule `O=C(NO)[C@H]1CCCCN1S(=O)(=O)N1CC=C(c2ccccc2)CC1`, half-maximal inhibition in the series with MONO-MAC-6 (Homo sapiens, MONO-MAC-6) (IC50) was put at 240 nM.
The molecule `O=C(NO)[C@H]1CCCCN1S(=O)(=O)N1CC=C(c2ccc(Br)cc2)CC1` had an IC50 with MONO-MAC-6 (Homo sapiens, MONO-MAC-6) of 1200 nM.
Take `O=C(NO)[C@H]1CCCCN1S(=O)(=O)N1CC=C(c2ccc(F)cc2)CC1`: the Cmax in series [7] amounted to 117 ng/mL; in series [16], 3060 ng/mL. Besides, half-maximal inhibition in the series with MONO-MAC-6 (Homo sapiens, MONO-MAC-6) (IC50) was put at 300 nM.
In turn, `C[C@@H](NS(=O)(=O)N1CC=C(c2ccc(Cl)cc2)CC1)C(=O)NO` had an IC50 in the series on MONO-MAC-6 (Homo sapiens, MONO-MAC-6) of 1240 nM.
The same measure, in the same setting: then `O=C(NO)[C@H]1CCCCN1S(=O)(=O)N1CC=C(c2ccc(-c3ccccc3)cc2)CC1`, with 19000 nM.
The same measure, in the same setting: then `O=C(NO)[C@H]1CCCCN1S(=O)(=O)N1CC=C(c2ccc(F)c(F)c2)CC1`, with 1200 nM.
